Test results as given in patent US20230364065A1, “ANTIBIOTIC COMBINATION THERAPIES” (BIOVERSYS AG, priority 2022, published 2023).
Like-named read-outs stand apart in the source and are kept apart here.

What was measured:
[1] = system: carbapenem-resistant Acinetobacter baumannii (CRAB); conditions: RPMI/FCS, broth microdilution, panel of 293 CRAB; cited from earlier work
[2] = system: carbapenem-resistant Acinetobacter baumannii (CRAB); conditions: MHA/PIH, cited from earlier work
[3] = system: A. baumannii Pop1 and Pop2 strains; test: Rifabutin MIC of the strains used for time-kill curves; format: cell-based; conditions: Acinetobacter baumannii
[4] = system: A. baumannii clinical isolates; test: Rifabutin MIC with a fixed polymyxin concentration, broth microdilution in CAMHB/PIH; format: cell-based, Acinetobacter baumannii
Description: (§1) The MIC90 (the maximum Minimal Inhibitory Concentration which inhibits growth of 90% of the strains of a test panel) of rifabutin is 2 or 1 mg/L when tested respectively in RPMI/FCS for broth microdilution or MHA/PIH for agar dilution against a panel of 293 carbapenem-resistant Acinetobacter baumannii (CRAB) (Trebosc V, et al. 2020. In vitro activity of rifabutin against 293 contemporary carbapenem-resistant Acinetobacter baumannii clinical isolates and characterization of rifabutin mode of action and resistance mechanisms. J Antimicrob Chemother. 75(12):3552-3562, incorporated herein by reference). […] At these respective polymyxin concentrations, no strains, 3% of the strains, and <5% of the strains would be susceptible to the respective polymyxin. FIG. 1 illustrates the cumulative index and MIC50 and MIC90 of rifabutin in the presence of members of the polymyxin family of antibiotics at sub MIC (sub trough concentrations) showing the synergistic effect discussed above.
(§2) In vitro activity of rifabutin against 293 contemporary carbapenem-resistant Acinetobacter baumannii clinical isolates and characterization of rifabutin mode of action and resistance mechanisms. J Antimicrob Chemother. 75(12):3552-3562, incorporated herein by reference in its entirety). […] FIG. 2 illustrates the MIC distribution of rifabutin in the presence of members of the polymyxin family of antibiotics at sub MIC (sub trough concentrations) showing the synergistic effect discussed above.
The rifabutin MICs in combination with a fixed concentration of the specified polymyxin were determined by broth microdilution method according to the CLSI guideline. The medium used to determine the MICs was cation-adjusted Muller Hinton broth (CAMHB) supplemented with 0.1 mM of pyridoxal isonicotinoyl hydrazone (PIH). […] Accordingly, the MIC values were set at the first lowest rifabutin concentration preventing growth as assessed by visual inspection of the assay plate.

[5] = system: A. baumannii Pop1 and Pop2 strains; test: Time kill curves in CAMHB with 0.1 mM PIH; format: cell-based, Acinetobacter baumannii
Description: Based on the data of EXAMPLE 1, the bactericidal activity and the resistance development of rifabutin and of fixed rifabutin/polymyxin concentrations was assessed in time-kill curve experiments. […] FIGS. 3 and 4 show kill curve experiments on two different A. baumannii strains (Pop 1 and Pop2) having very different rifabutin MICs.
Based on the data of EXAMPLE 2, the bactericidal activity and the resistance development of rifabutin/polymyxin B was assessed in time kill curve experiments using a lower concentration of rifabutin and additional strains. Concentrations were fixed at 0.03 mg/L for rifabutin (on average, one thirty-second the rifabutin MIC90), and at 0.125 or 0.06 mg/L for polymyxin B (one fourth and one eighth the fCtrough of polymyxin B).
Time-kill kinetics were performed in CAMHB supplemented with 0.1 mM PIH medium. Rifabutin was tested at 0.25 mg/L with or without the specified concentration of a polymyxin agent. Samples were taken at 0, 2, 4, 8 and 24 hours in order to determine the colony forming units (cfu). Bactericidal activity is defined as ≥3-log reduction in cfu compared to the cfu present in the inoculum (0 hours).

[6] = system: A. baumannii clinical isolates; test: Susceptibility of panel strains to the polymyxin alone; format: cell-based, Acinetobacter baumannii; conditions: for number of strains with MIC>2 mg/L towards the polymyxin: polymyxin alone; for strains susceptible to the polymyxin at the fixed concentration: polymyxin alone at 0.125 mg/L
Description: as §1, §2

[7] = Example 2, colistin or polymyxin B alone at 0.125 or 0.03 mg/L, Pop 1 and Pop2 strains

CO[C@H]1/C=C/O[C@@]2(C)Oc3c(C)c(O)c4c(c3C2=O)C2=NC3(CCN(CC(C)C)CC3)NC2=C(NC(=O)/C(C)=C\C=C\[C@H](C)[C@H](O)[C@@H](C)[C@@H](O)[C@@H](C)[C@H](OC(C)=O)[C@@H]1C)C4=O [rifabutin, Rifabutin]
MIC90 of rifabutin [1]: 2 µg/mL
strains in population 1 (rifabutin MICs<0.125 mg/L) ([2]; 293 CRAB): 72%
strains in population 2 (rifabutin MICs≥0.125 to <16 mg/L) ([2]; 293 CRAB): 27%
strains in population 3 (rifabutin MICs≥16 mg/L) ([2]; 293 CRAB): 1%
MIC90 of rifabutin ([2]; agar dilution, panel of 293 CRAB): 1 µg/mL
MIC ([3]; A. baumannii Pop 1 strain of FIG. 3): 0.016 µg/mL
MIC ([3]; A. baumannii Pop2 strain of FIG. 4): 1 µg/mL
MIC ([3]; ATCC17978, Pop 1 strain ATCC 17978): 0.008 µg/mL
MIC ([3]; Pop 1 strain HUMC1): 0.002 µg/mL
MIC ([3]; Pop2 strain LAC-4): 1 µg/mL
MIC ([3]; Pop2 strain UNT238-1): 2 µg/mL
strains having a rifabutin MIC≤1 mg/L in the presence of a polymyxin ([4]; CAMHB/PIH broth microdilution, about one-quarter of the fCtrough of the polymyxin): 99%
MIC90 of rifabutin in the presence of a polymyxin ([4]; CAMHB/PIH broth microdilution, with 0.125 mg/L polymyxin B, 0.125 mg/L colistin or 0.03 mg/L SPR206 (about one-quarter of fCtrough)): 0.06 to 0.25 µg/mL
fold lowering of rifabutin MIC90 in the presence of a polymyxin ([4]; subinhibitory concentrations of a polymyxin antibiotic): up to 32 fold
bactericidal activity in time-kill curves ([5]; Example 2, rifabutin alone at 0.25 mg/L, Pop 1 and Pop2 strains): either poorly bactericidal or allow for regrowth
bactericidal activity in time-kill curves ([5]; Example 3, rifabutin alone at 0.03 mg/L, Pop1 and Pop2 strains): either poorly bactericidal or allowed for regrowth

SPR206 acetate
number of strains with MIC>2 mg/L towards the polymyxin [6]: 18 strains
bactericidal activity in time-kill curves ([5]; Example 2, SPR206 alone at 0.03 mg/L, Pop 1 and Pop2 strains): either poorly bactericidal or allow for regrowth

colistin sulfate
number of strains with MIC>2 mg/L towards the polymyxin [6]: 45 strains
strains susceptible to the polymyxin at the fixed concentration [6]: 3%
bactericidal activity in time-kill curves [5, 7]: either poorly bactericidal or allow for regrowth

polymyxin B sulfate
number of strains with MIC>2 mg/L towards the polymyxin [6]: 40 strains
strains susceptible to the polymyxin at the fixed concentration [6]: no strains
bactericidal activity in time-kill curves [5, 7]: either poorly bactericidal or allow for regrowth
bactericidal activity in time-kill curves ([5]; Example 3, polymyxin B alone at 0.125 or 0.06 mg/L, Pop1 and Pop2 strains): either poorly bactericidal or allowed for regrowth
